SMILES strings stand for the structures. Activity calls are given as the source filed them. The calls are words filed in the database; no cut-off is given here.

Series [1] deals with T-24. Put plainly: Induction of mitochondrial mediated apoptosis in human T24 cells assessed as decrease in Bcl-2 protein expression at 10 to 15 uM incubated for 24 hrs by Western blotting analysis. The class given is functional, cell-based. The conditions noted are these: dose 10-15 µM.
The subject of series [2] is T-24. Put plainly: Induction of cell cycle arrest in human T24 cells assessed as accumulation of cells at G2/M phase at 10 uM incubated for 24 hrs by propidium iodide/RNase A staining based flow cytometry analysis (reference value: 5.82 %). It counts as functional.
The subject of series [3] is T-24. Kind of series: Induction of apoptosis in human T24 cells assessed as necrotic cells at 15 uM incubated for 24 hrs by Annexin-V/PI staining based flow cytometry analysis (reference value: 1.92 %). The class given is functional. A general note: In flow cytometry, cells or beads pass a laser one at a time.
Series [4] deals with T-24. Put plainly: Induction of mitochondrial membrane potential dysfunction in human T24 cells assessed as decrease in ATP production at 15 uM. The class given is functional. Also noted: scale not given: the % may be the effect or the level left.
Series [5] has as its system T-24. Kind of series: Induction of cell cycle arrest in human T24 cells assessed as accumulation of cells at G2/M phase at 15 uM incubated for 24 hrs by propidium iodide/RNase A staining based flow cytometry analysis (reference value: 5.82 %). It counts as functional.
The test system of series [6] is T-24. Put plainly: Induction of apoptosis in human T24 cells assessed as increase in caspase 9 activity at 15 uM (Rvb= 7.2%). It counts as functional.
Series [7] has as its system T-24. Put plainly: Induction of apoptosis in human T24 cells assessed as early apoptotic cells at 10 uM incubated for 24 hrs by Annexin-V/PI staining based flow cytometry analysis (reference value: 3.27 %). It counts as functional.
Series [8] concerns T-24. Put plainly: Induction of mitochondrial membrane potential dysfunction in human T24 cells assessed as change in morphology at 10 to 15 uM by Mitotracker green dye based fluorescence microscopy. It counts as functional, cell-based. The settings on record: dose 10-15 µM.
Series [9] concerns T-24. Put plainly: Induction of cell cycle arrest in human T24 cells assessed as accumulation of cells at G1 phase at 15 uM incubated for 24 hrs by propidium iodide/RNase A staining based flow cytometry analysis (reference value: 51.71 %). The class given is functional.
For series [10], the system named is T-24. Put plainly: Induction of apoptosis in human T24 cells assessed as contracted small fragmented nuclei at 10 uM by Hoechst33258 staining based fluorescence microscopy. It counts as functional, cell-based.
Series [11] has as its system T-24. Put plainly: Induction of apoptosis in human T24 cells assessed as late apoptotic cells at 1 uM incubated for 24 hrs by Annexin-V/PI staining based flow cytometry analysis (reference value: 0.543 %). The class given is functional.
Series [12] concerns T-24. Kind of series: Induction of Ca2+ production in human T24 cells assessed as increase in intracellular Ca2+ concentration at 0.5 uM by Fluo3-AM staining based fluorescence microscopic method. The class given is functional, cell-based.
The nature of series [13]: Toxicity in human WI-38 cells assessed as wound closure at 0.25 uM measured after 24 hrs by fluorescence microscopy based wound healing assay. The class given is cell-based. The conditions noted are these: wi-38, 24 h.
In series [14] the test system is T-24. Put plainly: Induction of mitochondrial membrane potential dysfunction in human T24 cells assessed as depolarised cells at 1 uM incubated for 24 hrs by JC-1 staining based flow cytometry (reference value: 6.20%). The class given is functional.
Series [15] concerns T-24. Kind of series: Induction of DNA damage in human T24 cells assessed as DNA strand breakage by measuring comet formation at 0.5 uM incubated for 24 hrs by comet assay. It counts as functional, cell-based.
The test system of series [16] is T-24. Kind of series: Induction of apoptosis in human T24 cells assessed as viable cells at 1 uM incubated for 24 hrs by Annexin-V/PI staining based flow cytometry analysis (reference value: 94.3 %). The conditions noted are these: read-out: Activity. The class given is functional.
For series [17], the system named is T-24. Put plainly: Induction of mitochondrial mediated apoptosis in human T24 cells assessed as upregulation of apaf-1 expression at 0.5 to 1 uM incubated for 24 hrs by Western blotting analysis. The class given is functional, cell-based. The conditions noted are these: dose 0.5-1 µM.
The subject of series [18] is T-24. Put plainly: Induction of apoptosis in human T24 cells assessed as increase in caspase 9 activity at 0.5 uM (Rvb= 7.2%). It counts as functional.
In series [19] the test system is T-24. Kind of series: Induction of mitochondrial mediated apoptosis in human T24 cells assessed as decrease in Bcl-2 protein expression at 0.5 to 1 uM incubated for 24 hrs by Western blotting analysis. The settings on record: dose 0.5-1 µM. It counts as functional, cell-based. On the technique in general: Immunoblotting shows a protein as a band on a membrane.
Series [20] relates to T-24. Put plainly: Cytotoxicity against human T24 cells assessed as decrease in cell viability at 0.5 uM by MTT assay. The class given is functional, cell-based. The settings on record: TDE = time-dependent effect. In general terms: Tetrazolium assays rely on reduction of a dye to a coloured formazan, in cell work by metabolically active cells.
For series [21], the system named is T-24. Put plainly: Induction of mitochondrial membrane potential dysfunction in human T24 cells assessed as change in morphology at 0.5 to 1 uM by Mitotracker green dye based fluorescence microscopy. The settings on record: dose 0.5-1 µM. The class given is functional, cell-based.
Series [22] has as its system T-24. Put plainly: Induction of apoptosis in human T24 cells assessed as condensed chromatin at 0.5 uM by Hoechst33258 staining based fluorescence microscopy. The class given is functional, cell-based.
The test system of series [23] is T-24. Kind of series: Induction of apoptosis in human T24 cells assessed as condensation of nuclei at 0.5 uM by Hoechst33258 staining based fluorescence microscopy. The class given is functional, cell-based.
The test system of series [24] is T-24. Kind of series: Induction of mitochondrial membrane potential dysfunction in human T24 cells assessed as disappearance of cristae at 0.5 uM incubated for 24 hrs by TEM analysis. The class given is functional, cell-based.
Series [25] concerns T-24. Put plainly: Induction of ROS accumulation in human T24 cells assessed as increase in intracellular ROS level at 0.5 uM by […] based flow cytometry. It counts as functional, cell-based.
Series [26] relates to T-24. Put plainly: Induction of mitochondrial mediated apoptosis in human T24 cells assessed as increase in Bak protein expression at 0.5 to 1 uM incubated for 24 hrs by Western blotting analysis. The class given is functional, cell-based. The conditions noted are these: dose 0.5-1 µM.
The test system of series [27] is T-24. Kind of series: Induction of ROS generation in human T24 cells at 0.5 uM by fluorescence microscopy. It counts as functional, cell-based.
The subject of series [28] is T-24. Put plainly: Induction of cell cycle arrest in human T24 cells assessed as increase in CDK1 expression at 0.5 to 1 uM incubated for 24 hrs by chemiluminescence based Western blotting analysis. The class given is functional. The settings on record: dose 0.5-1 µM, DDE = dose-dependent effect.
For series [29], the system named is T-24. Put plainly: Inhibition of colony formation in human T24 cells at 0.01 uM incubated for 24 hrs and measured for 10 days. The class given is functional, cell-based.
For series [30], the system named is T-24. Kind of series: Induction of cell cycle arrest in human T24 cells assessed as accumulation of cells at G1 phase at 2 uM incubated for 24 hrs by propidium iodide/RNase A staining based flow cytometry analysis (reference value: 51.71 %). It counts as functional.
The subject of series [31] is T-24. Put plainly: Induction of apoptosis in human T24 cells assessed as viable cells at 6 uM incubated for 24 hrs by Annexin-V/PI staining based flow cytometry analysis (reference value: 94.3 %). The settings on record: read-out: Activity. It counts as functional.
Series [32] relates to T-24. Kind of series: Induction of apoptosis in human T24 cells assessed as late apoptotic cells at 4 uM incubated for 24 hrs by Annexin-V/PI staining based flow cytometry analysis (reference value: 0.543 %). It counts as functional.
Series [33] relates to T-24. Kind of series: Induction of Ca2+ production in human T24 cells assessed as increase in intracellular Ca2+ concentration at 2 uM by Fluo3-AM staining based fluorescence microscopic method. The class given is functional, cell-based.
Series [34] deals with T-24. Kind of series: Induction of mitochondrial Ca2+ production in human T24 cells assessed as increase in intracellular Ca2+ concentration at 2 uM by Rhod2-AM staining based fluorescence microscopic method. The class given is functional, cell-based.
In series [35] the test system is T-24. Put plainly: Induction of mitochondrial membrane potential dysfunction in human T24 cells assessed as depolarised cells at 4 uM incubated for 24 hrs by JC-1 staining based flow cytometry (reference value: 6.20%). It counts as functional.
Series [36] concerns T-24. Kind of series: Induction of apoptosis in human T24 cells assessed as late apoptotic cells at 6 uM incubated for 24 hrs by Annexin-V/PI staining based flow cytometry analysis (reference value: 0.543 %). The class given is functional.
For series [37], the system named is T-24. Kind of series: Induction of apoptosis in human T24 cells assessed as contracted small fragmented nuclei at 2 uM by Hoechst33258 staining based fluorescence microscopy. The class given is functional, cell-based.

As to `O=C1c2ccccc2-c2cccc3ccnc1c23`, the outcome in the series with T-24 [1], with T-24 [8] and in the series with T-24 [10] was Active. Also, the Activity with T-24 [2] is recorded as 13.69%; in the series with T-24 [3], 2.44%; in the series with T-24 [4], 66.2%; in the series with T-24 [5], 22.69%; in the series on T-24 [6], 26.3%; in the series with T-24 [7] it was 14.4%. Moreover, the Activity with T-24 [9] turned out to be 31.02%.
`O=C1c2ccccc2-c2ccc([N+](=O)[O-])c3ccnc1c23`: the Activity is 6.25% with T-24 [11]; “Non-Toxic” in [13]; 44.5% with T-24 [14]; 26.9% in the series on T-24 [18]; “Tde” in the series on T-24 [20]; “Dde” with T-24 [28]. Also, the result in the series with T-24 [12], with T-24 [15], in the series with T-24 [17], in the series on T-24 [19], in the series with T-24 [21] and with T-24 [22] was Active. Further, the outcome in the series with T-24 [23], in the series with T-24 [24], with T-24 [25], with T-24 [26] and with T-24 [27] was Active. In addition, the viability at 1 µM in the series with T-24 [16] was 52.6%. Further, the inhibition result in the series on T-24 [29] is “Active”.
Regarding `O=C1c2cc([N+](=O)[O-])ccc2-c2ccc([N+](=O)[O-])c3ccnc1c23`, the Activity was 0.27% in the series with T-24 [30], 5.49% with T-24 [32], 31.3% in the series on T-24 [35] and 6.56% with T-24 [36]. The viability at 6 µM with T-24 [31] is 54.1%. Also, the result in the series on T-24 [33], with T-24 [34] and in the series on T-24 [37] was Active.

These data come from ChEMBL document CHEMBL5131473, “One-pot synthesis of oxoaporphines as potent antitumor agents and investigation of their mechanisms of actions” (Eur J Med Chem, 2022).
